From patent US7482379B2, “Propenoyl hydrazides” (priority 2004, dated 2009)

Tests used:
[1] = target: Cathepsin B (Homo sapiens, UniProt P07858); test: Cathepsin B incubation inhibition assay; type: biochemical; settings: Table 4, cross reactivity of caspase inhibitors; listed as Cbz-Leu-Glu-Thr-AAsp-trans-CH═CH—COOEt
Description: Papain and Cathepsin B. The incubation method was used to measure the irreversible inhibition of papain and cathepsin B. […] Pseudo first-order inactivation rate constants were obtained from plots of ln vt/vo versus time.

[2] = target: T1, Calpain I (Sus scrofa, UniProt P35750); test: Calpain I incubation inhibition assay; type: biochemical, porcine; settings: Table 4, cross reactivity of caspase inhibitors; listed as Cbz-Leu-Glu-Thr-AAsp-trans-CH═CH—COOEt
T1 construct: by the incubation method with calpain I from porcine erythrocytes; from tissue; host or cells: porcine erythrocytes
T1 sequence (P35750 1-714): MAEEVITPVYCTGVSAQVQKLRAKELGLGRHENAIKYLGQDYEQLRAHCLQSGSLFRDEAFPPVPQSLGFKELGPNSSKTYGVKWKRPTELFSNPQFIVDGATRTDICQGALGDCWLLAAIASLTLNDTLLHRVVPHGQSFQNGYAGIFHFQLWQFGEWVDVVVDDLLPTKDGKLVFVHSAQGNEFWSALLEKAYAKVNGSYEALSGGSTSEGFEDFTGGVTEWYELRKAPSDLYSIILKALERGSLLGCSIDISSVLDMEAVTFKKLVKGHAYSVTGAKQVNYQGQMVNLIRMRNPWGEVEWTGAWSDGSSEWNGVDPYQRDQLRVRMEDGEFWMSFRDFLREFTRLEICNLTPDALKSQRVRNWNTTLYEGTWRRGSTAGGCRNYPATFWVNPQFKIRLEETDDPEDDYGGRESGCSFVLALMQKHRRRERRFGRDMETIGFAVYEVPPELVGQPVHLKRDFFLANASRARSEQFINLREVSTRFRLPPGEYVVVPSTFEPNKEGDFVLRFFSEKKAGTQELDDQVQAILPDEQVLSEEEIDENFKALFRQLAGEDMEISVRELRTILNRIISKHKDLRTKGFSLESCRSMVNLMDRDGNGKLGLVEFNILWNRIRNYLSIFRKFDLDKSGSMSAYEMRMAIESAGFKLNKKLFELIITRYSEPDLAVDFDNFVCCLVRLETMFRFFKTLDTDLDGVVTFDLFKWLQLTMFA
T1 sequence (P04574 1-266 partner): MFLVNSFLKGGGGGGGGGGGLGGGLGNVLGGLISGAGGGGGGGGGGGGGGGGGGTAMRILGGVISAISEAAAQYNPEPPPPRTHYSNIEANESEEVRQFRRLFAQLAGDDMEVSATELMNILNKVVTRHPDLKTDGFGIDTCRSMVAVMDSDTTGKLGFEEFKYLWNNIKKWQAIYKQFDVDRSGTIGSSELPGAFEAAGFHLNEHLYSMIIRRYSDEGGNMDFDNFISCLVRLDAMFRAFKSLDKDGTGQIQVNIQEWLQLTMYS
Description: Calpain I. Irreversible kinetic assays were performed by the incubation method with calpain I from porcine erythrocytes. […] At various time intervals 50 μL aliquots were withdrawn from the incubation mixture and added to 200 μL enzyme buffer containing Suc-Leu-Tyr-AMC (1.6 mM). […] Pseudo first-order rate constants (kobs) were obtained from plots of ln vt/vo versus time.

[3] = target: T2, Caspase-3 (Homo sapiens, UniProt P42574); test: Caspase-3 progress curve inhibition assay; settings: second-order rate constant; Ac-DEVD-AMC substrate; Pipes buffer pH 7.2
T2 sequence (P42574 29-175 limits assumed): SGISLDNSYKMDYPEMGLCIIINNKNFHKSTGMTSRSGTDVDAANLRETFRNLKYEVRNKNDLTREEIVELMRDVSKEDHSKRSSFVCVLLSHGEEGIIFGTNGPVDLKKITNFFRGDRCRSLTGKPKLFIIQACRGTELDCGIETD
T2 sequence (P42574 176-277 limits assumed): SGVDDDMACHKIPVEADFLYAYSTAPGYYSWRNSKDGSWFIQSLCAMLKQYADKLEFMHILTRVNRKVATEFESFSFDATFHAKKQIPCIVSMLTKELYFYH

[4] = target: T3, Caspase-9 (Homo sapiens, UniProt P55211); test: Caspase-9 progress curve inhibition assay; settings: second-order rate constant; Ac-LEHD-AFC substrate; Hepes buffer pH 7.0 with 0.7 M sodium citrate
T3 sequence (P55211 1-315 limits assumed): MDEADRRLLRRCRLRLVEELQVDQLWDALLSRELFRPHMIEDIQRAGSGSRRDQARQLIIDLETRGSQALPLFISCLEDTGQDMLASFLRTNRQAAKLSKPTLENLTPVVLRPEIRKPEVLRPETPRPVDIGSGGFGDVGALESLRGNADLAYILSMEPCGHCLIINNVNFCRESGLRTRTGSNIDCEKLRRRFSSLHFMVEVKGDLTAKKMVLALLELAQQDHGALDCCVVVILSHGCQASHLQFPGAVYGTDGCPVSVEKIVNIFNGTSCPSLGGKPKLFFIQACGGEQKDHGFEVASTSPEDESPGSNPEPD
T3 sequence (P55211 331-416 limits assumed): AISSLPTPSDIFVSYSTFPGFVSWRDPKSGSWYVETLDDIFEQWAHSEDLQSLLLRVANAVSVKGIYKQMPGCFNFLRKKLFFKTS

CCOC(=O)/C=C/C(=O)N(CC(=O)O)NC(=O)[C@@H](NC(=O)[C@H](CCC(=O)O)NC(=O)[C@H](CC(C)C)NC(=O)OCc1ccccc1)[C@@H](C)O (relative stereo) [Cbz-Leu-Glu-Thr-AAsp-CH═CH—COOEt, N^2—(N-Berzyloxycarbonylleucylglutamylthreonyl)-N^1-carboxymethyl-N^1-trans-(3-ethoxycarbonylpropenoyl)hydrazine]
k2 Cathepsin B [1]: <10 M⁻¹ s⁻¹ | k2 Calpain [2]: <10 M⁻¹ s⁻¹ | k2 Caspase-3 [3]: 5,560 M^−1s^−1 | k2 Caspase-9 [4]: 37 M⁻¹ s⁻¹
